Source: patent US12178800B2, “Sulforaphane-melatonin-like compound” (priority 2018, dated 2024)

Experiments:
[1] = test system: 2-Thiobarbituric Acid Reactive Substances (TBARS); assay: TBARS levels in mouse tongues; format: in vivo, ICR mice; settings: 12 days after irradiation
Text: The scoring of oral mucositis was based on a modification of the method of Sonis et al. To assess the severity of oral mucositis, mice were anesthetized with isoflurane every day. The oral mucositis score was: 0=normal; 1=partial hyperemia, erythema and swelling; 2=overall hyperemia, erythema and swelling; 3=epidermolysis, hyperemia and erythema; 4=extensive epidermolysis and bleeding; 5=bleeding and abscesses. Myeloperoxidase (MPO) activity is a marker for neutrophils in inflamed tissue. MPO activity was measured in mouse tongues using a modification of the method of Chen et al. After mice had been killed by cervical dislocation 12 days after irradiation, tongue samples (n=10 per group) were removed and stored at −70° C. until required for assay. […] MPO activity was measured using a Microplate Reader (NJ-2300; Biotec, Tokyo, Japan) at 450 nm. MPO activity was calculated by measuring the slope of absorbance calibrated using MPO standards (Wako Biochemicals) and expressed as MPO/g tongue. […] TBARS levels were measured using the Microplate Reader (Biotec) at 540 nm. TBARS levels were calculated by measuring the slope of absorbance calibrated using TBARS standards and expressed as TBARS/g tongue. […] The number of TUNEL-positive cells on the tongue tips were counted and expressed as a percentage. […] Data were analyzed using one-way analysis of variance (ANOVA) followed by the Steel-Dwass test. […]

[2] = Topical carbopol gel formulation: permeability and skin irritation; settings: pH 6.8
Protocol: A formulation in accordance with embodiments of the present invention appropriate for topical administration was obtained by adding 200 mg of carbopol (Carbopol 934P; Lubrizol, USA) to 2.5 mL of distilled water and solubilizing 200 mg of 6OHM-6-HITC in 2 mL of ethanol. An appropriate amount of the ethanolic dispersion was transferred to the aqueous dispersion of carbopol. Methanol (1.25 mL) was mixed with 1 mL of ethanol and added to the 6OHM-6-HITC and carbopol mixture, which was gradually stirred, and carbopol was allowed to soak for 2 h. Triethanolamine (100 mg; Sigma-Aldrich, USA) was added to neutralize the carbopol solution and facilitate the formation of a gel, after which the pH was adjusted to 6.8. A vehicle cream was prepared using the same ingredients and identical methods as the cream, but 6OHM-6-HITC was omitted from the mixture. […] For topical treatment, 6OHM-6-HITC or the vehicle cream (concentration, 200 mg/cm^2) was spread on the irradiated skin of pigs twice daily for 35 days, and the first application was performed immediately after irradiation.

biopsy wound = assay: Healing of biopsy wounds in irradiated skin; format: in vivo, Gottingen mini-pigs; settings: biopsy wound 3 days after irradiation
cyclooxygenase-2 (COX-2) = assay: COX-2 immunohistochemistry of irradiated skin; format: in vivo, Gottingen mini-pigs; settings: 7, 21 and 35 days after irradiation
Protocol: After incubation in normal horse serum for 60 min to prevent nonspecific binding, the skin sections were incubated with mouse anti-nuclear factor (NF)-κB (sc-109, 1:200; Santa Cruz Biotechnology, Santa Cruz, CA, USA) and mouse anti-COX-2 (18-7379, 1:200; Zymed, USA) in phosphate buffered saline-Tween (PBS-T overnight at 4° C. The sections were subsequently incubated with biotinylated horse anti-mouse IgG (VECTASTAIN Elite ABC Kit; Vector Laboratories, USA). The immunoreactivity was assessed using the avidin-biotin peroxidase complex (VECTASTAIN Elite ABC Kit; Vector Laboratories). The peroxidase reaction was developed using a diaminobenzidine substrate kit (DAB Substrate Kit SK-4100; Vector Laboratories). As a control, the primary antibodies were omitted from the immunohistochemical analysis of a few test sections in each experiment. The sections were then counterstained with hematoxylin before being mounted.

peripheral blood = assay: Peripheral blood counts after focal irradiation; format: in vivo, Gottingen mini-pigs
Text: Blood samples were collected via the ear vein into sample tubes containing ethylenediaminetetraacetic acid at different time points (before irradiation, 3, 7, 21, and 35 days after irradiation). Peripheral eosinophils were automatically counted using a Hemavet System (Drew Scientific, UK).

[3] = 21 and 35 days after irradiation, decrease not significant

In the case of `COc1cc2c(CCCCN=C=S)c[nH]c2cc1O` [6OHM-6-HITC], the “TBARS levels vs. control group” value ([1]; 30 mg/kg i.p.) is reported as “lower”, the “TBARS levels vs. control group” value ([1]; 300 mg/kg i.p.) is reported as “significant decrease” and the “permeability of 6OHM-6-HITC from topical gel formulation” value [2] is reported as “highest permeability”. The “skin irritation by topical gel formulation” value [2] was “without causing skin irritation”, the “healing of the biopsy wound” value (biopsy wound) was “attenuated the radiation-induced delayed healing” and the “COX-2 expression in the irradiated skin vs. vehicle-treated skin” value (cyclooxygenase-2 (COX-2)) was “lower”. The “eosinophils in the blood” value (peripheral blood; [3]) was “decreased”, the “neutrophils in the blood” value (peripheral blood; [3]) was “decreased” and the “radioprotective effect on peripheral blood (white blood cell count)” value (peripheral blood; initially (7 days after exposure)) was “did not show a radioprotective effect”.
